What was measured:
GLS = molecular target: T1, GLS (Homo sapiens, UniProt O94925); conditions: previously reported; cited from earlier work
T1 sequence (O94925 124-669 limits assumed): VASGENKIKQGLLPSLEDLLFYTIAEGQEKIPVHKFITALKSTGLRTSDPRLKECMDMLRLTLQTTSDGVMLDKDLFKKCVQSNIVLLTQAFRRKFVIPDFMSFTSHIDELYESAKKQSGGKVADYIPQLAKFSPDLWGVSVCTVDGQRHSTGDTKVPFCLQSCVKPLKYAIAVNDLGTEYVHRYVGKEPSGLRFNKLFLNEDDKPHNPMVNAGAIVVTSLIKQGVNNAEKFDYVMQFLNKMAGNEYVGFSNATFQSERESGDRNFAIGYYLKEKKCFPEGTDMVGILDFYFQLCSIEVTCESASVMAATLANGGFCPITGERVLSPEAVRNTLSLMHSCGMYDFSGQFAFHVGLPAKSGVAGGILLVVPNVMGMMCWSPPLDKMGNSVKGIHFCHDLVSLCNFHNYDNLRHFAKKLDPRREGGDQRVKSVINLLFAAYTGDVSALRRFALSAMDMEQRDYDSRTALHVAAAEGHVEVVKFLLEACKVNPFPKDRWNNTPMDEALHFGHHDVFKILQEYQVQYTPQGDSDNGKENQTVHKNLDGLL

[1] = test system: P493 human lymphoma B cells; assay: P493 cell proliferation assay; format: cell-based; conditions: P493-6, read-out: IC50 (growth of P493 cells)
[2] = mouse liver microsomes, phase I

Nc1nnc(CCSCCc2nnc(N)s2)s1 [Compound 5, Bis-[2-(5-Amino-[1,3,4]thiadiazol-2-yl)-ethylsulfide]]
fold increase in IC50 value from 3 to 5 (GLS): 50 fold

O=C(CCCCc1nnc(NC(=O)Cc2ccccc2)s1)NCCN1CCCC1 [Compound 29a, 5-(5-(2-phenylacetamido)-1,3,4-thiadiazol-2-yl)-N-(2-(pyrrolidin-1-yl)ethyl)pentanamide]
IC50 [1]: ~40 µM
stability against microsomes in the presence of NADPH [2]: completely stable

Nc1nnc(CCCCc2nnc(NC(=O)Cc3ccccc3)s2)s1 [Compound 11b, N-(5-(4-(5-amino-1,3,4-thiadiazol-2-yl)butyl)-1,3,4-thiadiazol-2-yl)-2-phenylacetamide]
stability against microsomes in the presence of NADPH [2]: completely stable
